Measured values published in PubChem BioAssay AID1918939 (Molecular Pharmacology Branch, DTP, NCI, 2023).
Values joined by “and” are separate entries in the source; they are usually repeats but may differ in a detail not shown here. Equal entries are not always repeated.

Tested on: 653999-131-R-J2-PDC complex spheroid viability
Experiment: Anticancer human tumor 653999-131-R-J2-PDC patient-derived lung adenocarcinoma cell line growth inhibition
Settings: for viability, T/C: stronger effect = lower value
How it was run: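 Drug combinations with the LSD1 inhibitor iadademstat tested on tumor cells co-cultured as spheroids with endothelial cells and mesenchymal stem cells. Concentrations descended in half-log increments from clinical Cmax or 10 microM.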

[1] = curve of first compound, second compound 0.1 µM
[2] = curve of first compound, second compound 0.316 µM
[3] = curve of first compound, second compound 1 µM
[4] = curve of first compound, second compound 3.16 µM
[5] = curve of first compound, second compound 10 µM
[6] = second compound 0.1 µM, first compound 0.0316 µM
[7] = second compound 0.1 µM, first compound 0.1 µM
[8] = second compound 0.1 µM, first compound 0.316 µM
[9] = second compound 0.1 µM, first compound 1 µM
[10] = second compound 0.1 µM, first compound 3.16 µM
[11] = second compound 0.1 µM, first compound 10 µM
[12] = second compound 0.316 µM, first compound 0.0316 µM
[13] = second compound 0.316 µM, first compound 0.1 µM
[14] = second compound 0.316 µM, first compound 0.316 µM
[15] = second compound 0.316 µM, first compound 1 µM
[16] = second compound 0.316 µM, first compound 3.16 µM
[17] = second compound 0.316 µM, first compound 10 µM
[18] = second compound 1 µM, first compound 0.0316 µM
[19] = second compound 1 µM, first compound 0.1 µM
[20] = second compound 1 µM, first compound 0.316 µM
[21] = second compound 1 µM, first compound 1 µM
[22] = second compound 1 µM, first compound 3.16 µM
[23] = second compound 1 µM, first compound 10 µM
[24] = second compound 3.16 µM, first compound 0.0316 µM
[25] = second compound 3.16 µM, first compound 0.1 µM
[26] = second compound 3.16 µM, first compound 0.316 µM
[27] = second compound 3.16 µM, first compound 1 µM
[28] = second compound 3.16 µM, first compound 3.16 µM
[29] = second compound 3.16 µM, first compound 10 µM
[30] = second compound 10 µM, first compound 0.0316 µM
[31] = second compound 10 µM, first compound 0.1 µM
[32] = second compound 10 µM, first compound 0.316 µM
[33] = second compound 10 µM, first compound 1 µM
[34] = second compound 10 µM, first compound 3.16 µM
[35] = second compound 10 µM, first compound 10 µM
[36] = second compound 0.1 µM, first compound 0.00316 µM
[37] = second compound 0.1 µM, first compound 0.01 µM
[38] = second compound 0.316 µM, first compound 0.00316 µM
[39] = second compound 0.316 µM, first compound 0.01 µM
[40] = second compound 1 µM, first compound 0.00316 µM
[41] = second compound 1 µM, first compound 0.01 µM
[42] = second compound 3.16 µM, first compound 0.00316 µM
[43] = second compound 3.16 µM, first compound 0.01 µM
[44] = second compound 10 µM, first compound 0.00316 µM
[45] = second compound 10 µM, first compound 0.01 µM
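Further: spheroids exposed to agents for seven days before readout.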

CC(C)c1c(-c2ccccc2)nc2c(C#N)c[nH]n2c1=O + NC1CC1c1ccc(-c2cccc(O)c2)cc1
IC50 [1]: > 10 µM
IC50 [2]: > 10 µM
IC50 [3]: > 10 µM
IC50 [4]: > 10 µM
IC50 [5]: > 10 µM
viability, T/C [6]: 87.3%
viability, T/C [7]: 96.5%
viability, T/C [8]: 89.1%
viability, T/C [9]: 76.9%
viability, T/C [10]: 80.1%
viability, T/C [11]: 80.5%
viability, T/C [12]: 84%
viability, T/C [13]: 83.7%
viability, T/C [14]: 90.9%
viability, T/C [15]: 74.8%
viability, T/C [16]: 64.2%
viability, T/C [17]: 66.2%
viability, T/C [18]: 73.1%
viability, T/C [19]: 87.2%
viability, T/C [20]: 86.1%
viability, T/C [21]: 77.8%
viability, T/C [22]: 66.7%
viability, T/C [23]: 72.2%
viability, T/C [24]: 84.2%
viability, T/C [25]: 72.5%
viability, T/C [26]: 80.2%
viability, T/C [27]: 68.7%
viability, T/C [28]: 77.5%
viability, T/C [29]: 76.8%
viability, T/C [30]: 80.8%
viability, T/C [31]: 73.8%
viability, T/C [32]: 77.4%
viability, T/C [33]: 76.5%
viability, T/C [34]: 68.9%
viability, T/C [35]: 65.6%

NS(=O)(=O)OCC1CC(n2ccc3c(NC4CCc5ccccc54)ncnc32)CC1O (stereo unspecified) + NC1CCC(NC2CC2c2ccccc2)CC1
IC50 [1]: > 3 µM
IC50 [2]: > 3 µM
IC50 [3]: > 3 µM
IC50 [4]: > 3 µM
IC50 [5]: > 3 µM
viability, T/C (second compound 0.1 µM, first compound 0.00949 µM): 97.5%
viability, T/C (second compound 0.1 µM, first compound 0.03 µM): 80.8%
viability, T/C (second compound 0.1 µM, first compound 0.0949 µM): 106%
viability, T/C (second compound 0.1 µM, first compound 0.3 µM): 107%
viability, T/C (second compound 0.1 µM, first compound 0.949 µM): 54.7%
viability, T/C (second compound 0.1 µM, first compound 3 µM): 61.1%
viability, T/C (second compound 0.316 µM, first compound 0.00949 µM): 97.8%
viability, T/C (second compound 0.316 µM, first compound 0.03 µM): 81.6%
viability, T/C (second compound 0.316 µM, first compound 0.0949 µM): 105%
viability, T/C (second compound 0.316 µM, first compound 0.3 µM): 114%
viability, T/C (second compound 0.316 µM, first compound 0.949 µM): 55.6%
viability, T/C (second compound 0.316 µM, first compound 3 µM): 50.7%
viability, T/C (second compound 1 µM, first compound 0.00949 µM): 94.4%
viability, T/C (second compound 1 µM, first compound 0.03 µM): 92.8%
viability, T/C (second compound 1 µM, first compound 0.0949 µM): 91.2%
viability, T/C (second compound 1 µM, first compound 0.3 µM): 116%
viability, T/C (second compound 1 µM, first compound 0.949 µM): 60.5%
viability, T/C (second compound 1 µM, first compound 3 µM): 56.2%
viability, T/C (second compound 3.16 µM, first compound 0.00949 µM): 105%
viability, T/C (second compound 3.16 µM, first compound 0.03 µM): 98.7%
viability, T/C (second compound 3.16 µM, first compound 0.0949 µM): 100%
viability, T/C (second compound 3.16 µM, first compound 0.3 µM): 105%
viability, T/C (second compound 3.16 µM, first compound 0.949 µM): 58.6%
viability, T/C (second compound 3.16 µM, first compound 3 µM): 59.2%
viability, T/C (second compound 10 µM, first compound 0.00949 µM): 116%
viability, T/C (second compound 10 µM, first compound 0.03 µM): 101%
viability, T/C (second compound 10 µM, first compound 0.0949 µM): 105%
viability, T/C (second compound 10 µM, first compound 0.3 µM): 118%
viability, T/C (second compound 10 µM, first compound 0.949 µM): 63.7%
viability, T/C (second compound 10 µM, first compound 3 µM): 54.2%

CC1(C)CCC(CN2CCN(c3ccc(C(=O)NS(=O)(=O)c4ccc(NCC5CCOCC5)c([N+](=O)[O-])c4)c(Oc4cnc5[nH]ccc5c4)c3)CC2)=C(c2ccc(Cl)cc2)C1 + NC1CC1c1ccc(-c2cccc(O)c2)cc1
IC50 [1]: 5.74 µM
IC50 [2]: 4.87 µM
IC50 [3]: 5.19 µM
IC50 [4]: 5.26 µM
IC50 [5]: 4.53 µM
viability, T/C [6]: 117%
viability, T/C [7]: 118%
viability, T/C [8]: 107%
viability, T/C [9]: 102%
viability, T/C [10]: 81.5%
viability, T/C [11]: 21.6%
viability, T/C [12]: 103%
viability, T/C [13]: 112%
viability, T/C [14]: 101%
viability, T/C [15]: 99.3%
viability, T/C [16]: 65.7%
viability, T/C [17]: 23.6%
viability, T/C [18]: 103%
viability, T/C [19]: 101%
viability, T/C [20]: 107%
viability, T/C [21]: 107%
viability, T/C [22]: 72.6%
viability, T/C [23]: 20.2%
viability, T/C [24]: 89.9%
viability, T/C [25]: 84.2%
viability, T/C [26]: 105%
viability, T/C [27]: 86.8%
viability, T/C [28]: 76.5%
viability, T/C [29]: 16.8%
viability, T/C [30]: 85.3%
viability, T/C [31]: 102%
viability, T/C [32]: 89.4%
viability, T/C [33]: 95.8%
viability, T/C [34]: 68.8%
viability, T/C [35]: 8.78%

CC1COCCN1c1cc(-c2ccnn2C)c2ccnc(-c3ccn[nH]3)c2n1 (stereo unspecified) + NC1CC1c1ccc(-c2cccc(O)c2)cc1
IC50 [1]: 0.00531 µM
IC50 [2]: < 0.00316 µM
IC50 [3]: < 0.00316 µM
IC50 [4]: < 0.00316 µM
IC50 [5]: < 0.00316 µM
viability, T/C [36]: 52%
viability, T/C [37]: 50%
viability, T/C [6]: 44.3%
viability, T/C [7]: 29.7%
viability, T/C [8]: 42.7%
viability, T/C [9]: 45.7%
viability, T/C [38]: 47.7%
viability, T/C [39]: 44.4%
viability, T/C [12]: 36.7%
viability, T/C [13]: 36.6%
viability, T/C [14]: 36.1%
viability, T/C [15]: 48.5%
viability, T/C [40]: 45.5%
viability, T/C [41]: 47%
viability, T/C [18]: 36.8%
viability, T/C [19]: 32.7%
viability, T/C [20]: 31%
viability, T/C [21]: 36.3%
viability, T/C [42]: 49.5%
viability, T/C [43]: 45.5%
viability, T/C [24]: 36.5%
viability, T/C [25]: 28.8%
viability, T/C [26]: 36.1%
viability, T/C [27]: 39.7%
viability, T/C [44]: 47.5%
viability, T/C [45]: 46.6%
viability, T/C [30]: 39.5%
viability, T/C [31]: 29%
viability, T/C [32]: 29.7%
viability, T/C [33]: 34.7%

O=C(C=Cc1cccc(S(=O)(=O)Nc2ccccc2)c1)NO
viability, T/C (compound 0.00949 µM): 87.5% and 110%
viability, T/C (compound 0.03 µM): 96.6% and 99.4%
viability, T/C (compound 0.0949 µM): 75.9% and 90.7%
viability, T/C (compound 0.3 µM): 54.9%
viability, T/C (compound 0.949 µM): 30.9% and 11.4%
IC50 (curve of compound): 0.401 µM and > 3 µM

COc1cc(Nc2ncc3c(n2)-c2ccc(Cl)cc2C(c2c(F)cccc2OC)=NC3)ccc1C(=O)O + NC1CCC(NC2CC2c2ccccc2)CC1
IC50 [1]: > 1 µM
IC50 [2]: > 1 µM
IC50 [3]: > 1 µM
IC50 [4]: > 1 µM
IC50 [5]: > 1 µM
viability, T/C [36]: 78.7%
viability, T/C [37]: 89.2%
viability, T/C [6]: 74.2%
viability, T/C [7]: 78.5%
viability, T/C [8]: 73.7%
viability, T/C [9]: 76.1%
viability, T/C [38]: 85.4%
viability, T/C [39]: 72.8%
viability, T/C [12]: 63.9%
viability, T/C [13]: 68.1%
viability, T/C [14]: 71.3%
viability, T/C [15]: 75.6%
viability, T/C [40]: 76.6%
viability, T/C [41]: 84.3%
viability, T/C [18]: 78.6%
viability, T/C [19]: 69.2%
viability, T/C [20]: 61.9%
viability, T/C [21]: 74.9%
viability, T/C [42]: 92.2%
viability, T/C [43]: 73.9%
viability, T/C [24]: 79.2%
viability, T/C [25]: 65.6%
viability, T/C [26]: 79.7%
viability, T/C [27]: 72%
viability, T/C [44]: 92.9%
viability, T/C [45]: 81.4%
viability, T/C [30]: 71.7%
viability, T/C [31]: 71.2%
viability, T/C [32]: 60.9%
viability, T/C [33]: 79.7%
